# Patent US11542266B1, “Substituted piperidines as BTK inhibitors” (HAISCO PHARMACEUTICALS PTE. LTD., priority 2019, dated 2023)
# Counter-ions that a name gives are not always drawn.
# Legend:
# [1] = system: Mino cells; assay: Inhibition of cell proliferation, Mino cells (Cell Viability Assay, 72 h); format: cell-based, human; conditions: Homo sapiens
# How it was run: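 RPMI1640 + 10% FBS cultures seeded at 20000/well (SU-DHL-4) or 5000/well (Mino, SU-DHL-6), exposed to compound dilutions in triplicate for 72 h at 37 °C, 5% CO2, DMSO vehicle control. Viability read by luminescent reagent; IC50 from dose-response and Max inhi. % = (1 − T72 treated/T72 vehicle)×100 at top concentration.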
# [2] = system: SU-DHL-4 cells; assay: Inhibition of cell proliferation, SU-DHL-4 cells (Cell Viability Assay, 72 h); format: cell-based, human; conditions: Homo sapiens
# Procedure: (§1) SU-DHL-4, Mino, and SU-DHL-6 cells, in the culture medium of RPMI1640+10% FBS, were cultured in an incubator at 37° C. under 5% CO2. Cells were plated in a 96-well plate. Specifically, SU-DHL-4 cells were at 20000/well, Mino and SU-DHL-6 cells were at 5000/well, with 90 μL/well. 10 μL of the compounds at different concentrations were added to each well. There were 3 replicate wells for each concentration, and the last column, added with DMSO, was used as a vehicle control group. The cultures were continued for 72 hours at 37° C. under 5% CO2. After 72 hours, 100 μL of detection reagent (Cell Viability Assay, Promega, G7573) was added to each well, and the cultures were uniformly mixed for 2 minutes, and incubated at room temperature for 10 minutes. The fluorescence signal value was measured with a microplate reader (PHERAstar FSX). The IC50 value of the compound on cell proliferation inhibition was calculated using Origin 9.2 software, and the inhibition rate at the highest concentration of the compound (Max inhi. %) was calculated according to formula (1). Max inhi. %=(1-T72 administration/T72 vehicle)×100 Formula (1).
# [3] = system: SU-DHL-6 cells; assay: Inhibition of cell proliferation, SU-DHL-6 cells (Cell Viability Assay, 72 h); format: cell-based; conditions: Homo sapiens
# Procedure: as §1
# [4] = Pharmacokinetic experiment in rats (i.g. vehicle 0.5% MC); format: in vivo; conditions: Sprague-Dawley (SD), rat, po; male SD rats, plasma, i.g. 20 mg/kg, vehicle 0.5% MC; read-out: AUC0-t
# Procedure: (§2) Objective: In this experiment, a single dose of each test compound was administered to SD rats intravenously and intragastrically, the concentrations of the test compound in plasma of rats were measured, and the pharmacokinetic characteristics and bioavailability of the test compound in rats were evaluated.
# Experimental animals: Male SD rats, 200-250 g, 6-8 weeks old, 6 rats/test compound. The experimental animals were purchased from CHENGDU DOSSY EXPERIMENTAL ANIMALS CO., LTD.
# (§3) Experimental method: On the day of the experiment, 6 SD rats were randomly grouped according to their body weight. The animals were fasted with water available for 12 to 14 hours one day before the administration of a test compound, and were fed 4 hours after the administration.
# Sampling: Before and after the administration, 0.1 ml of blood was taken from the orbit of the rats under isoflurane anesthesia, and placed in an EDTAK2 centrifuge tube. Centrifugation was carried out at 5000 rpm at 4° C. for 10 min and the plasma was collected.
# Time points for plasma collection in G1 group: 0, 5 m, 15 m, 30 m, 1 h, 2 h, 4 h, 6 h, 8 h, and 24 h.
# Time points for plasma collection in G2 group: 0, 15 m, 30 m, 1 h, 2 h, 4 h, 6 h, 8 h, and 24 h.
# (§4) Before analysis and detection, all samples were stored at −80° C. The samples were analyzed quantitatively by LC-MS/MS.
# [5] = Pharmacokinetic experiment in rats (i.g. vehicle DMSO/Solutol/PEG-400/SBE-β-CD); format: in vivo; conditions: Sprague-Dawley (SD), rat, plasma, po, male SD rats; for bioavailability: i.g. 20 mg/kg (DMSO/Solutol/PEG-400/SBE-β-CD) vs i.v. 5 mg/kg; for AUC(0-t): i.g. 20 mg/kg, vehicle 5% DMSO + 5% Solutol + 30% PEG-400 + 60% (20%SBE-β-CD)
# Procedure: as §2
# Experimental animals: Male SD rats, 200-250 g, 6-8 weeks old, 6 rats/compound. The experimental animals were purchased from CHENGDU DOSSY EXPERIMENTAL ANIMALS CO., LTD.
# as §3
# Sampling: Before and after the administration, 0.1 mL of blood was taken from the orbit of the rats under isoflurane anesthesia, and placed in an EDTAK2 centrifuge tube. Centrifugation was carried out at 5000 rpm at 4° C. for 10 min and the plasma was collected.
# Time points for plasma collection in G1 group: 0, 5 min, 15 min, 30 min, 1 h, 2 h, 4 h, 6 h, 8 h, and 24 h.
# Time points for plasma collection in G2 group: 0, 15 min, 30 min, 1 h, 2 h, 4 h, 6 h, 8 h, and 24 h.
# as §4
SMILES,IC50 [2] [nM],IC50 [3] [nM],AUC(0-t) [4] [ng·h/mL],bioavailability [5] [%],AUC(0-t) [5] [ng·h/mL],IC50 [1] [nM]
"Nc1ncnc2c1c(-c1ccc(Oc3ccccc3)cc1)nn2C1CCN(CC2CCN(C3CN(c4ccc5c(c4)C(=O)N(C4CCC(=O)NC4=O)C5=O)C3)CC2)CC1 (stereo not shown) [Compound 6, 5-(3-(4-((4-(4-amino-3-(4-phenoxyphenyl)-1H-pyrazolo[3,4-d]pyrimidin-1-yl)piperidin-1-yl)methyl)piperidin-1-yl)azetidin-1-yl)-2-(2,6-dioxopiperidin-3-yl)isoindoline-1,3-dione tritrifluoroacetate]",–,166,328 ± 41,–,–,421
"Nc1ncnc2c1c(-c1ccc(Oc3ccccc3)cc1)nn2C1CCN(C2CCN(C3CCN(C4CCN(C5CCN(c6ccc7c(c6)C(=O)N(C6CCC(=O)NC6=O)C7=O)CC5)CC4)CC3)CC2)CC1 (stereo not shown) [Compound 14, 5-[4-[4-[4-[4-[4-[4-amino-3-(4-phenoxyphenyl)pyrazolo[3,4-d]pyrimidin-1-yl]-1-piperidyl]-1-piperidyl]-1-piperidyl]-1-piperidyl]-1-piperidyl]-2-(2,6-dioxo-3-piperidyl)isoindoline-1,3-dione Hexatrifluoroacetate]",60,86,–,–,–,–
"Nc1ncnc2c1c(-c1ccc(Oc3ccccc3)cc1)nn2C1CCN(C2CN(C3CN(c4ccc5c(c4)C(=O)N(C4CCC(=O)NC4=O)C5=O)C3)C2)CC1F (stereo not drawn) [Compound 19, trans-5-(3-(4-(4-amino-3-(4-phenoxyphenyl)-1H-pyrazolo[3,4-d]pyrimidin-1-yl)-3-fluoropiperidin-1-yl)-[1,3′-biazetidin]-1′-yl)-2-(2,6-dioxopiperidin-3-yl)isoindoline-1,3-dione trifluoroacetate]",–,782,–,–,–,48
"Nc1ncnc2c1c(-c1ccc(Oc3ccccc3)cc1)nn2C1CCN(C2CCN(C3CN(c4cc5c(cc4F)C(=O)N(C4CCC(=O)NC4=O)C5=O)C3)CC2)CC1 (stereo not shown) [Compound 32, 5-(3-(4-(4-amino-3-(4-phenoxyphenyl)-1H-pyrazolo[3,4-d]pyrimidin-1-yl)-[1,4′-bipiperidin]-1′-yl)azetidin-1-yl)-2-(2,6-dioxopiperidin-3-yl)-6-fluoroisoindoline-1,3-dione]",330,393,322 ± 64,–,–,188
"Nc1ncnc2c1c(-c1ccc(Oc3ccccc3)cc1)nn2C1CCN(C2CN(C3CCC(Oc4ccc5c(c4)C(=O)N(C4CCC(=O)NC4=O)C5=O)CC3)C2)CC1 (stereo not shown) [Compound 37, 5-[4-[3-[4-[4-amino-3-(4-phenoxyphenyl)pyrazolo[3,4-d]pyrimidin-1-yl]-1-piperidyl]azetidin-1-yl]cyclohexoxy]-2-(2,6-dioxo-3-piperidyl)isoindoline-1,3-dione]",631,–,473 ± 105,–,–,–
"Nc1ncnc2c1c(-c1ccc(Oc3ccccc3)cc1)nn2[C@@H]1CCN(C2CN(C3CN(c4ccc5c(c4)C(=O)N(C4CCC(=O)NC4=O)C5=O)C3)C2)C[C@@H]1F (stereo partly drawn) [Compound 38, 5-[3-[3-[(3S,4R)-4-[4-amino-3-(4-phenoxyphenyl)pyrazolo[3,4-d]pyrimidin-1-yl]-3-fluoro-1-piperidyl]azetidin-1-yl]azetidin-1-yl]-2-(2,6-dioxo-3-piperidyl)isoindoline-1,3-dione]",469,888,–,13.3 ± 5.2,7260 ± 2860,81
"Nc1ncnc2c1c(-c1ccc(Oc3ccccc3)cc1)nn2[C@@H]1CCN(C2CN(C3CN(c4ccc5c(c4)C(=O)N(C4CCC(=O)NC4=O)C5=O)C3)C2)C[C@H]1F (stereo partly drawn) [Compound 39, 5-(3-((3R,4R)-4-(4-amino-3-(4-phenoxyphenyl)-1H-pyrazolo[3,4-d]pyrimidin-1-yl)-3-fluoropiperidin-1-yl)-[1,3′-biazetidin]-1′-yl)-2-(2,6-dioxopiperidin-3-yl)isoindoline-1,3-dione]",–,–,–,9.1 ± 1.5,2830 ± 474,41
"Nc1ncnc2c1c(-c1ccc(Oc3ccccc3)cc1)nn2[C@H]1CCN(C2CCN(C3CN(c4ccc5c(c4)C(=O)N(C4CCC(=O)NC4=O)C5=O)C3)CC2)C[C@@H]1F (stereo partly drawn) [Compound 44, 5-(3-((3S,4S)-4-(4-amino-3-(4-phenoxyphenyl)-1H-pyrazolo[3,4-d]pyrimidin-1-yl)-3-fluoro-[1,4′-bipiperidin]-1′-yl)azetidin-1-yl)-2-(2,6-dioxopiperidin-3-yl)isoindoline-1,3-dione]",–,–,–,5.73 ± 0.64,877 ± 98,15

# The next lines start with results.
IC50 [2] [nM],IC50 [3] [nM],AUC(0-t) [4] [ng·h/mL],bioavailability [5] [%],AUC(0-t) [5] [ng·h/mL],SMILES,IC50 [1] [nM]
41,26,18.6 ± 2.8,–,–,"Nc1ncnc2c1c(-c1ccc(Oc3ccccc3)cc1)nn2C1CCN(C2CCN(C3CCN(c4ccc5c(c4)C(=O)N(C4CCC(=O)NC4=O)C5=O)CC3)CC2)CC1 (stereo not shown) [Compound 2, 5-[4-[4-[4-[4-amino-3-(4-phenoxyphenyl)pyrazolo[3,4-d]pyrimidin-1-yl]-1-piperidyl]-1-piperidyl]-1-piperidyl]-2-(2,6-dioxo-3-piperidyl)isoindoline-1,3-dione]",633
295,155,8.93 ± 4.3,–,–,"Nc1ncnc2c1c(-c1ccc(Oc3ccccc3)cc1)nn2C1CCN(CC2CCN(C3CCN(c4ccc5c(c4)C(=O)N(C4CCC(=O)NC4=O)C5=O)CC3)CC2)CC1 (stereo not shown) [Compound 9, 5-(4-((4-(4-amino-3-(4-phenoxyphenyl)-1H-pyrazolo[3,4-d]pyrimidin-1-yl)piperidin-1-yl)methyl)-[1,4′-bipiperidin]-1′-yl)-2-(2,6-dioxopiperidin-3-yl)isoindoline-1,3-dione tetratrifluoroacetate]",367
–,77,–,–,–,"Nc1ncnc2c1c(-c1ccc(Oc3ccccc3)cc1)nn2C1CCN(CC2CN(C3CCN(c4ccc5c(c4)C(=O)N(C4CCC(=O)NC4=O)C5=O)CC3)C2)CC1 (stereo not shown) [Compound 10, 5-(4-(3-((4-(4-amino-3-(4-phenoxyphenyl)-1H-pyrazolo[3,4-d]pyrimidin-1-yl)piperidin-1-yl)methyl)azetidin-1-yl)piperidin-1-yl)-2-(2,6-dioxopiperidin-3-yl)isoindoline-1,3-dione Tetratrifluoroacetate]",405
189,109,–,–,–,"Nc1ncnc2c1c(-c1ccc(Oc3ccccc3)cc1)nn2C1CCN(C2CN(C3CCN(C4CCN(C5CCN(c6ccc7c(c6)C(=O)N(C6CCC(=O)NC6=O)C7=O)CC5)CC4)CC3)C2)CC1 (stereo not shown) [Compound 11, 5-[4-[4-[4-[3-[4-[4-amino-3-(4-phenoxyphenyl)pyrazolo[3,4-d]pyrimidin-1-yl]-1-piperidyl]azetidin-1-yl]-1-piperidyl]-1-piperidyl]-1-piperidyl]-2-(2,6-dioxo-3-piperidyl)isoindoline-1,3-dione Hexatrifluoroacetate]",114
56,106,–,–,–,"Nc1ncnc2c1c(-c1ccc(Oc3ccccc3)cc1)nn2C1CCN(C2CCN(C3CCN(C4CCN(c5ccc6c(c5)C(=O)N(C5CCC(=O)NC5=O)C6=O)CC4)CC3)CC2)CC1 (stereo not shown) [Compound 12, 5-[4-[4-[4-[4-[4-amino-3-(4-phenoxyphenyl)pyrazolo[3,4-d]pyrimidin-1-yl]-1-piperidyl]-1-piperidyl]-1-piperidyl]-1-piperidyl]-2-(2,6-dioxo-3-piperidyl)isoindoline-1,3-dione pentatrifluoroacetate]",183
